Experimental data taken from US10815197B2, “N-sulfonyl benzamides as voltage-gated sodium channel inhibitors” (SHANGHAI HAIYAN PHARMACEUTICAL TECHNOLOGY CO., LTD., priority 2016, dated 2020).
Read-outs that look alike come from different tables or passages of the source.

How the values were obtained:
[1] = Metabolism stability assay, human liver microsomes; type: in vitro ADME; conditions: for metabolic stability (in words): from Table 7; for half-life at 1 µM: pH 7.4
Experimental: Assay 4: Metabolism Stability Assay 1. […] Buffer A: 1 L solution of 100 mM potassium dihydrogen phosphate containing 1 mM EDTA (Sigma, V900157-100G) was prepared. Buffer B: 1 L solution of 100 mM dipotassium hydrogen phosphate containing 1 mM EDTA was prepared. Buffer C: 700 mL of buffer B was taken out and titrated with buffer A to pH 7.4. 2. […] 2.2 20 μl (20 mg/mL) of liver microsomes (Corning Lot. NO. 4133007) stock solution was added to 513.4 μl of buffer C on wet ice. 0.75 mg/mL liver microsomal solution was obtained. 2.3 1.5 μl of each of the above-mentioned compound to be tested and ketanserin solution was added to 498.5 μl of liver microsomal solution (0.7 5 mg/mL) respectively on wet ice. 1.5 μM mixed solution of compound to be tested and 1.5 μM mixed solution of ketanserin were obtained. 2.4 At the time points 0, 5, 15, 30, 45, and 60 min, 30 μl of the mixed solution of compound to be tested and 30 μl of the mixed solution of ketanserin were dispensed into the reaction plate on wet ice, respectively. 2.5 5 mg reduced coenzyme II (Roche, 10621706001) was weighed and dissolved in 1 mL of buffer C. 6 mM reduced coenzyme II solution was obtained. The reduced coenzyme II solution was dispensed into the reaction plate. 2.6 Imipramine was dissolved to give a 10 mM solution. 10 μl of imipramine solution was added to 100 mL of blank acetonitrile to generate the internal reference. 2.7 At 0 min, 135 μL of iced acetonitrile (Merck (Lot. 1778229518)) containing the internal reference was added to each well and then 15 μL of buffer C was added. 2.8 The reaction plate was placed into a 37° C. water bath incubator for 5 min. In the reaction plate, 15 μL of reduced coenzyme II solution was added to each well to initiate the reaction, and the timing was started. At the time points of 5, 15, 30, 45, and 60 min, 135 μL of iced acetonitrile containing the internal reference was added to each well to terminate the reaction. 2.9 The reaction plate was sealed with an aluminum film, placed on a vibration mixer and shaken at 500 rpm for 5 min. The plate was then centrifuged in a centrifuge at 3750 rp for 15 min. 2.10 The sample was diluted with pure water in accordance with the ratio of 1:1 and detected by LC/MS. Half-life: 0.693/K (the slope by plotting based on the incubation time and logarithm of the concentration value) Clearance ratio: (0.693/half-life)*(1/protein concentration (0.5 mg/mL))*(proportional factor) Wherein, the K value and the proportional factor were calculated by those skilled in the art according to the methods described in the prior art and contained in the instructions of the liver microsome product.

hNav1.7 = target: T1, hNav1.7 (Homo sapiens, UniProt Q15858); assay: Manual patch clamp experiment hNav1.7 (CHO-hNav1.7 stable cell line); type: cell-based; conditions: for inhibition at 0.1 µM: read-out: Inhibition of Nav1.7 100 nM(%); for inhibition at 1 µM: read-out: Inhibition of Nav1.7 1000 nM(%)
T1 construct: host or cells: CHO
Description: Assay 1: Manual Patch Clamp Experiment of Sodium Ion (hNav1.7, hNav1.5 and hNaV1.8) and Calcium Ion (hCav3.2) Channels
hNav1.7, hNav1.5 Manual Patch Clamp Experiment:
Patch voltage clamp electrophysiology allows for the direct measurement and quantification of current block of voltage-gated sodium channels (NaV's), and allows the determination of the time and voltage-dependence of block which has been interpreted as differential binding to the resting, open and inactivated states of the sodium channel to reflect the compound's inhibitory or activating effects (Hille, B., Journal of General Physiology (1977), 69: 497-515).
Representative compounds of the present invention were subject to a manual patch clamp experiment and the purpose of this study was to test the effect of compounds on this ion channel current on a stable cell line transfected with a specific ion channel using a manual patch clamp method. The used stable cell lines CHO-hNav1.7 and HEK-hNav1.5 were from Genionics and WuXi Apptec (Shanghai) respectively.
Manual patch clamp experimental program is as follows:
(1) Preparation of solutions and compounds: The whole cell patch clamp technique was used to record hNav1.7 and hNav1.5 currents. In the experiment, the composition of extracellular fluid (mM): HEPES: 5, NaCl: 40, KCl: CaCl2: 1, MgCl2: 1, CdCl2: 0.1, TEA-Cl: 20. The pH was adjusted to 7.3 with NaOH and the osmotic pressure was adjusted to 310-320 mOsm with sucrose, filtered and stored at 4° C. The composition of the intracellular fluid (mM): HEPES: 10, NaCl: 10, CsOH: 5, CsF: 140, EGTA: 1. The pH was adjusted to 7.3 with CsOH and the osmotic pressure was adjusted to 280-290 mOsm with sucrose, filtered and stored at −20° C.
The positive control and the test compound were firstly dissolved in 100% DMSO (Sigma-Aldrich, D2650), configured as stock solution at a concentration (100 nM, 1000 nM).) The above stock solution was serially diluted with DMSO prior to the experiment, the solution was further diluted with extracellular solution to obtain the test solution of the desired concentration.
(2) Manual Patch Clamp Experiment: The cell suspension was added to a 35 mm petri dish and placed on an inverted microscope stage. The cells were perfused with an extracellular fluid and the flow rate was 1-2 mL/min after cell adherence. The glass microelectrode was prepared in two steps by a microelectrode puller with an inlet water resistance of 2-5 MΩ. A/D-D/A digital-analog conversion was performed by Digidata 1440 (Molecular Devices) and pCLAMP software (version 10.2, Molecular Devices) for stimulation and signal acquisition; the signal was amplified by patch clamp amplifier (Multiclamp 700B, Molecular Devices), and filtering is 4 KHz.
Two different voltage stimulation procedures were used in the hNav1.7 and hNav1.5 manual patch clamp experiments.
One is the inactivation stimulation program, the clamp potential is set at V1/2 of the corresponding channel, i.e., about 50% of the channels are inactivated, then the voltage is applied to −120 mV for 50 ms, then depolarized to −10 mV for 20 ms leading to sodium current, and finally returned to the clamp potential. This stimulation program can also be called channel state-dependent voltage stimulation program.
The other is the non-inactivation stimulation program, the clamp potential is maintained at −120 mV, voltage stimulation is given to −10 mV for 20 ms leading to sodium current, and finally returned to the clamp potential. That is, all channels have not experienced inactivation status, but activate directly from the resting state under the conditions of the stimulation program.
The time intervals of these two voltage stimulation programs were 10 s. The inhibitory effect of the compound was calculated by the change of the current before and after dosing, the IC50 value was fitted by the Hill equation.

[2] = tested on: SNL-induced cold allodynia in rats; assay: Cold allodynia in SNL (spinal nerve ligation) rats; type: in vivo, rat
Description: Assay 3: Cold Allodynia in SNL
The experimental animals were male Sprague-Dawley rats, weighing 140-150 g at the beginning of the experiment. The animals were purchased from Slack company, and food and water were supplied ad lib after purchase. Rats were group-housed, four rats/cage, and individually identified by marking on the tail.
Test Compound and Grouping:
Vehicle: 5% dimethylacetamide(Sinopharm Technology), 5% solutol (Sigma) and 90% saline
Positive control: Pregabalin;
Test compound: compound Z-164;
The positive control and solvent composition of the test compound are 5% dimethylacetamide, 5% solutol and 90% saline.
30 mg/kg Compound Z-164:1.23 mL of dimethylacetamide was added to 148.11 mg of compound Z-164, stirred well until fully dissolved, and then 1.23 mL solutol was added and mixed well. Final volume was made up with 90% saline to 21.44 mL and mixed well before oral administration.
30 mg/kg Pregabalin: 1.08 mL of dimethylacetamide was added to 129.48 mg of Pregabalin, stirred well until fully dissolved, and then 1.08 mL solutol was added and mixed well. Final volume was made up with 90% saline to 21.58 mL and mixed well before oral administration.
1.1. Spinal Nerve Ligation (SNL) model • Surgical procedures are performed aseptically. • The surgical instruments (scissors, tweezers, scalpels, surgical cotton, sutures, retractor) are sterilized prior to surgery. • Animals were anesthetized with pentobarbital (50 mg/kg, i.p.). A toe pinch was used to ensure that the animals were fully anesthetized prior to surgery. Put ophthalmic ointment in the animal's eyes to prevent the corneas from drying out. • The fur on the surgical area of animal's lower body was shaved, and the skin of the surgical area was swabbed with 3 rounds of Betadine and 70% ethanol. The skin was allowed to dry before surgery. • A longitudinal incision will be made by scalpel at the lower lumbar and sacral levels, exposing the paraspinal muscles on the left side. The retractor was used to separate the muscles and tissues to expose the vertebra. • The left L5 and L6 spinal nerves will be isolated and tightly ligated with 6-0 silk thread. • The wound was closed with sutures. • The surgical instruments were cleaned, and sterilized by using a glass bead sterilizer. • Animals were placed on the electric blanket after surgery. Inject 5 ml sterile saline to prevent dehydration. The animals were returned to their home cage after fully awake (walking around).
1.2. Baseline Test of Cold Allodynic and Grouping
The baseline of cold allodynic was measured in rats two days before dosing. Use a pipette to apply 100 μl of acetone to the animal's lateral hind paw skin and the time of slapping, flinching, lifting, licking of the affected paw were recorded for one minute. Acetone was applied twice in total and the two applications were 10 minutes apart. The sum of the two times was recorded as cold allodynic time in rats. The rats were grouped randomized according to the results of baseline test of cold allodynic the day before dosing.
1.3. Cold Allodynic Testing
A pipette was used to apply 100 μl of acetone to the animal's lateral hind paw skin two hours after dosing and the time of slapping, flinching, lifting, licking of the affected paw were recorded for one minute. Acetone was applied twice and the two applications were 10 minutes apart. The sum of the two times was recorded as cold allodynic time in rats.
Oral administration was performed two hours before cold allodynic testing.
1.5. Data Collection and Analysis
Data were collected with Excel and analyzed with Prism.

[3] = 30 mg/kg p.o., two hours after dosing

T1 sequence (Q15858 whole entry): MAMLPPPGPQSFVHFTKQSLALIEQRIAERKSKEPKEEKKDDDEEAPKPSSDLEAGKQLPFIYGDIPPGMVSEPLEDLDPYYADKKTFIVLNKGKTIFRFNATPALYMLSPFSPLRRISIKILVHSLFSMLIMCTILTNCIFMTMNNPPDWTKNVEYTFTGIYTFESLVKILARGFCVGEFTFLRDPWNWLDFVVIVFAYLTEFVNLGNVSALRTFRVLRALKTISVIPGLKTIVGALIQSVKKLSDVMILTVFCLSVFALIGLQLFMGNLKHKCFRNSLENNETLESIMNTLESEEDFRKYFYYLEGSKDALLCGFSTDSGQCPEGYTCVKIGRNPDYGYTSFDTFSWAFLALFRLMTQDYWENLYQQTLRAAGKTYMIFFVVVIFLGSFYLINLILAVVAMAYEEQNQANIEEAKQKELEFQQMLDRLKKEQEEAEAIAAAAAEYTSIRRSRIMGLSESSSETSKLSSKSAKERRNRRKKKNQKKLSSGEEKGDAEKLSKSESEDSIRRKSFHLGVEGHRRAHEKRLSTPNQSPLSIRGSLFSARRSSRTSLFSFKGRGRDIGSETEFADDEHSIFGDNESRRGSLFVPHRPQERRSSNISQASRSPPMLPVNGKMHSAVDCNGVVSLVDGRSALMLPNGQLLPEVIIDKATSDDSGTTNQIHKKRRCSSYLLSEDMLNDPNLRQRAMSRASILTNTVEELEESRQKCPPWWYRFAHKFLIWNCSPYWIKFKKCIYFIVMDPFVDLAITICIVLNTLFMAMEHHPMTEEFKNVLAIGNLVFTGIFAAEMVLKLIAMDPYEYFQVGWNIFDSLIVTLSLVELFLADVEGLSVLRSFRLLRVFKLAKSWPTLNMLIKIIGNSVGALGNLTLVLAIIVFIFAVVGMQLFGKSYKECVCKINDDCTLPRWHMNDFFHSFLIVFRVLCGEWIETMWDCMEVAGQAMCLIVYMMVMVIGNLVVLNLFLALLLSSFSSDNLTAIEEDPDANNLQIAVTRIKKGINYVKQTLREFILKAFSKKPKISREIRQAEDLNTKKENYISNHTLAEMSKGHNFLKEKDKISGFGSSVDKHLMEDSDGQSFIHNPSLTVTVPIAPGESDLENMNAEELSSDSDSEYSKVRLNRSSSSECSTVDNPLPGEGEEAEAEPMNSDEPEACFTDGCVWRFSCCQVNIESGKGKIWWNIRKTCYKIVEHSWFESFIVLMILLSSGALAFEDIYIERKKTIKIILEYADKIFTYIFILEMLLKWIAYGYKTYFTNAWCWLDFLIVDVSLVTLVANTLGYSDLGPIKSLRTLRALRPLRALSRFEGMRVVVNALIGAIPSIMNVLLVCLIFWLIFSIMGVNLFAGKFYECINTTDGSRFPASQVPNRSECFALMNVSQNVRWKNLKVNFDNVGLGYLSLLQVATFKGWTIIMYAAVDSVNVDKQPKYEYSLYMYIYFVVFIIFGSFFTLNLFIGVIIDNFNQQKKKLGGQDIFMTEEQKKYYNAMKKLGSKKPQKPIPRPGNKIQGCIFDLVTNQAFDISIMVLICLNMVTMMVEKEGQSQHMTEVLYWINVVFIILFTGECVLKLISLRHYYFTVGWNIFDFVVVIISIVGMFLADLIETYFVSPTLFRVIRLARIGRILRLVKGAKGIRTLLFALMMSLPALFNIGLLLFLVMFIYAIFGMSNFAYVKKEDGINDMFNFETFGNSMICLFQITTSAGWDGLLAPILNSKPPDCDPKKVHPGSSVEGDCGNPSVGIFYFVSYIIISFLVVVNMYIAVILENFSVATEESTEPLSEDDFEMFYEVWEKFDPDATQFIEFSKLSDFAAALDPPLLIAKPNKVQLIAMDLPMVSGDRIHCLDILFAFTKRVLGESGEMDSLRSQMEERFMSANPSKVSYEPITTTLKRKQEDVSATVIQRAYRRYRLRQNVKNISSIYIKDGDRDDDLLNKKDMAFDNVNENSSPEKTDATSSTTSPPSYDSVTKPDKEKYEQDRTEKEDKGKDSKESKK

Row | Structure (SMILES) | Clearance [1] | half-life at 1 µM [1] | inhibition at 0.1 µM (hNav1.7; compound at 100 nM) | inhibition at 1 µM (hNav1.7; compound at 1000 nM) | further results
1 | CS(=O)(=O)NC(=O)c1cc(Cl)c(CN2CCN(c3ccc(C4CC4)c(Cl)c3)CC2)cc1F [Compound C12, reference compound] | 78.28 mL/min/kg | 0.37 h | – | – | metabolic stability (in words) [1]: significantly reduced
2 | Cc1cc(N2CCN(Cc3cc(F)c(C(=O)NS(C)(=O)=O)cc3Cl)CC2)ccc1Cl [Compound C13, reference compound] | 138.91 mL/min/kg | 0.208 h | – | – | metabolic stability (in words) [1]: significantly reduced
3 | O=C(NS(=O)(=O)C1CC1)c1cc(Cl)c(OC[C@H]2CCCN2c2ccc(C(F)(F)F)cc2)cc1F [Compound Z-80, (R)-5-chloro-N-(cyclopropylsulfonyl)-2-fluoro-4-((1-(4-(trifluoromethyl)phenyl)pyrrolidine-2-yl)methoxy)benzamide] | 36.37 mL/min/kg | 0.796 h | 90.5% | 96.8% | –
4 | O=C(NS(=O)(=O)C1CC1)c1cc(Cl)c(CN2CCN(c3ccc(Cl)c(Cl)c3)CC2)cc1F [Compound Z-89, 5-chloro-N-(cyclopropylsulfonyl)-4-((4-(3,4-dichlorophenyl)piperazin-1-yl)methyl)-2-fluorobenzamide] | 6.49 mL/min/kg | 4.46 h | – | – | inhibition at 0.1 µM (hNav1.7): 94.8%; inhibition at 1 µM (hNav1.7): 99.7%
5 | O=C(NS(=O)(=O)C1CC1)c1cc(Cl)c(CN2CCN(c3ccc(OC(F)(F)F)c(Cl)c3)CC2)cc1F [Compound Z-92] | 0.07 mL/min/kg | 420 h | 94.5% | 97.3% | –
6 | O=C(NS(=O)(=O)C1CC1)c1cc(Cl)c(OC2CCN(c3ccc(Cl)c(Cl)c3)CC2)cc1F [Compound Z-117, 5-chloro-N-(cyclopropylsulfonyl)-4-((1-(3,4-dichlorophenyl)piperidin-4-yl)oxy)-2-fluorobenzamide] | 5.41 mL/min/kg | 5.36 h | 89.3% | 96.1% | –
7 | O=C(NS(=O)(=O)C1CC1)c1cc(Cl)c(OC[C@H]2CCCN2c2ccc(C(F)(F)F)nc2)cc1F [Compound Z-119, (R)-5-chloro-N-(cyclopropylsulfonyl)-2-fluoro-4-((1-(6-(trifluoromethyl)pyridin-3-yl)pyrrolidin-2-yl)methoxy) benzamide] | 22.57 mL/min/kg | 1.28 h | – | – | –
8 | O=C(NS(=O)(=O)C1CC1)c1cc(Cl)c(CN2CCN(c3ccc(OC(F)(F)F)cn3)CC2)cc1F [Compound Z-159] | 3.69 mL/min/kg | 7.84 h | 90.6% | 97.3% | –
9 | Cc1cc(C(=O)NS(=O)(=O)C2CC2)c(F)cc1OC[C@H]1CCCN1c1ccc(C(F)(F)F)cn1 [Compound Z-195] | 20.86 mL/min/kg | 1.39 h | 76.7% | 92.7% | –
10 | CC(C)C[C@H](CN)CC(=O)O [Positive control, Pregabalin, reference compound] | – | – | – | – | Anti-allodynia Effect (mean, %) [2, 3]: 74.9%; Response duration (mean, s) the next day (Baseline) [2, 3]: 13.005 s; inhibition of SNL-induced cold allodynia (in words) ([2]; 30 mg/kg, 2 hr post oral administration): inhibition of SNL-induced cold allodynia; Response duration (mean, s) the first day (Baseline) ([2]; acetone cold allodynia, baseline before dosing): 36.847 s
